Assay results reported in ChEMBL document CHEMBL4819087, “Identification and optimization of 3-bromo-N'-(4-hydroxybenzylidene)-4-methylbenzohydrazide derivatives as mTOR inhibitors that induce autophagic cell death and apoptosis in triple-negative breast cancer” (Eur J Med Chem, 2021).
Activity calls are given as the source filed them. No cut-off for these calls is given here.

How the values were obtained:
[1] = biological target: T1, Serine/threonine-protein kinase mTOR (Homo sapiens, UniProt P42345); test: Inhibition of mTOR (unknown origin)
[2] = system: MDA-MB-231; test: Induction of autophagy in human MDA-MB-231 cells assessed as MDC positive ratio at 1 uM incubated for 6 hrs by MDC staining based flow cytometry analysis; type: functional
[3] = biological target: T1, Serine/threonine-protein kinase mTOR; test: Inhibition of mTOR in human MDA-MB-468 cells assessed as reduction in phosphorylation of mTOR at Ser2448 residue at 0.5 to 2 uM after 24 hrs by Western blot analysis; type: cell-based; settings: dose 0.5-2 µM
[4] = biological target: T1, Serine/threonine-protein kinase mTOR; test: Inhibition of mTOR in human MDA-MB-231 cells assessed as reduction in total 4EBP1 protein level at 0.5 to 2 uM after 24 hrs by Western blot analysis; type: cell-based; settings: dose 0.5-2 µM
[5] = biological target: T1, Serine/threonine-protein kinase mTOR; test: Inhibition of mTOR in human MDA-MB-231 cells assessed as reduction in AKT protein level at 0.5 to 2 uM after 24 hrs by Western blot analysis; type: cell-based; settings: dose 0.5-2 µM
[6] = biological target: T1, Serine/threonine-protein kinase mTOR; test: Inhibition of mTOR in human MDA-MB-468 cells assessed as reduction in total 4EBP1 protein level at 0.5 to 2 uM after 24 hrs by Western blot analysis; type: cell-based; settings: dose 0.5-2 µM
[7] = biological target: T1, Serine/threonine-protein kinase mTOR; test: Inhibition of mTOR in human MDA-MB-231 cells assessed as reduction in p-4EBP1(Thr37/46) protein level at 0.5 to 2 uM after 24 hrs by Western blot analysis; type: cell-based; settings: dose 0.5-2 µM
[8] = biological target: T1, Serine/threonine-protein kinase mTOR; test: Inhibition of mTOR in human MDA-MB-231 cells assessed as reduction in p70S6K(Thr389) protein level at 0.5 to 2 uM after 24 hrs by Western blot analysis; type: cell-based; settings: dose 0.5-2 µM
[9] = biological target: T1, Serine/threonine-protein kinase mTOR; test: Inhibition of mTOR in human MDA-MB-468 cells assessed as reduction in p70S6K(Thr389) protein level at 0.5 to 2 uM after 24 hrs by Western blot analysis; type: cell-based; settings: dose 0.5-2 µM
[10] = system: MDA-MB-231; test: Antiproliferative activity against human MDA-MB-231 cells measured after 24 hrs by Hoechst 33258 dye based fluorescence microscopic analysis; type: functional, cell-based; settings: dose 2.5-10 µM
[11] = system: MDA-MB-468; test: Antiproliferative activity against human MDA-MB-468 cells measured after 24 hrs by Hoechst 33258 dye based fluorescence microscopic analysis; type: functional, cell-based; settings: dose 2.5-10 µM
[12] = system: MDA-MB-231; test: Induction of apoptosis in human MDA-MB-231 cells assessed as viable cells at 2.5 uM after 24 hrs by AnnexinV-FITC/PI staining based flow cytometry analysis (reference value: 96.45%); type: functional; settings: read-out: Activity
[13] = system: MDA-MB-231; test: Induction of apoptosis in human MDA-MB-231 cells assessed as early apoptotic cells at 2.5 uM after 24 hrs by AnnexinV-FITC/PI staining based flow cytometry analysis (reference value: 2.63%); type: functional
[14] = system: MDA-MB-231; test: Induction of apoptosis in human MDA-MB-231 cells assessed as necrotic cells at 2.5 uM after 24 hrs by AnnexinV-FITC/PI staining based flow cytometry analysis (reference value: 0.083%); type: functional
[15] = system: MDA-MB-231; test: Induction of apoptosis in human MDA-MB-231 cells assessed as necrotic cells at 5 uM after 24 hrs by AnnexinV-FITC/PI staining based flow cytometry analysis (reference value: 0.083%); type: functional
[16] = system: MDA-MB-231; test: Induction of apoptosis in human MDA-MB-231 cells assessed as viable cells at 10 uM after 24 hrs by AnnexinV-FITC/PI staining based flow cytometry analysis (reference value: 95.6 to 96.45%); type: functional; settings: read-out: Activity
[17] = system: MDA-MB-231; test: Induction of apoptosis in human MDA-MB-231 cells assessed as necrotic cells at 10 uM after 24 hrs by AnnexinV-FITC/PI staining based flow cytometry analysis (reference value: 0.083%); type: functional
[18] = system: MDA-MB-468; test: Induction of apoptosis in human MDA-MB-468 cells assessed as viable cells at 5 uM after 24 hrs by AnnexinV-FITC/PI staining based flow cytometry analysis (reference value: 95.1%); type: functional; settings: read-out: Activity
[19] = system: MDA-MB-468; test: Induction of apoptosis in human MDA-MB-468 cells assessed as early apoptic cells at 5 uM after 24 hrs by AnnexinV-FITC/PI staining based flow cytometry analysis (reference value: 0.51%); type: functional
[20] = system: MDA-MB-468; test: Induction of apoptosis in human MDA-MB-468 cells assessed as viable cells at 10 uM after 24 hrs by AnnexinV-FITC/PI staining based flow cytometry analysis (reference value: 95.1 to 96.3%); type: functional; settings: read-out: Activity
[21] = system: MDA-MB-468; test: Induction of apoptosis in human MDA-MB-468 cells assessed as early apoptic cells at 10 uM after 24 hrs by AnnexinV-FITC/PI staining based flow cytometry analysis (reference value: 0.51 to 2.55%); type: functional
[22] = system: MDA-MB-468; test: Induction of apoptosis in human MDA-MB-468 cells assessed as late apoptic cells at 10 uM after 24 hrs by AnnexinV-FITC/PI staining based flow cytometry analysis (reference value: 0.87 to 2.84%); type: functional
[23] = system: MDA-MB-468; test: Induction of apoptosis in human MDA-MB-468 cells assessed as necrotic cells at 10 uM after 24 hrs by AnnexinV-FITC/PI staining based flow cytometry analysis (reference value: 1.56%); type: functional
[24] = system: MDA-MB-468; test: Induction of apoptosis in human MDA-MB-468 cells assessed as increase in cleaved caspase 3 level at 2.5 to 10 uM incubated for 24 hrs by western blot analysis; type: functional, cell-based; settings: dose 2.5-10 µM
[25] = system: MDA-MB-468; test: Induction of apoptosis in human MDA-MB-468 cells assessed as increase in Bax level at 2.5 to 10 uM incubated for 24 hrs by western blot analysis; type: functional, cell-based; settings: dose 2.5-10 µM
[26] = system: MDA-MB-468; test: Induction of apoptosis in human MDA-MB-468 cells assessed as decrease in Bcl2 level at 2.5 to 10 uM incubated for 24 hrs by western blot analysis; type: functional, cell-based; settings: dose 2.5-10 µM
[27] = system: MDA-MB-468; test: Induction of autophagy in human MDA-MB-468 cells expressing mRFP-EGFP-LC3B at 5 uM measured after 24 hrs by fluorescence microscopic analysis; type: functional, cell-based
[28] = system: MDA-MB-231; test: Induction of autophagy in human MDA-MB-231 cells assessed as reduction in p62 protein level at 2.5 to 10 uM incubated for 24 hrs by Western blot analysis; type: functional, cell-based; settings: dose 2.5-10 µM
[29] = system: MDA-MB-468; test: Induction of autophagy in human MDA-MB-468 cells assessed as reduction in p62 protein level at 2.5 to 10 uM incubated for 24 hrs by Western blot analysis; type: functional, cell-based; settings: dose 2.5-10 µM
[30] = system: MDA-MB-468; test: Induction of autophagy in human MDA-MB-468 cells assessed as increase in Beclin-1 protein level at 2.5 to 10 uM incubated for 24 hrs by Western blot analysis; type: functional, cell-based; settings: dose 2.5-10 µM
[31] = system: MDA-MB-231; test: Inhibition of colony formation in human MDA-MB-231 cells at 10 uM incubated for 14 days in presence of autophagy inhibitor, 3-methyladenine by crystal violet staining based analysis; type: functional, cell-based; settings: time 14.0 day
[32] = system: MDA-MB-468; test: Induction of apoptosis in human MDA-MB-468 cells assessed as late apoptotic cells at 10 uM pretreated for 1 hr with autophagy inhibitor, 3-methyladenine followed by incubation with compound and measured after 24 hrs by Annexin V-FITC/propidium iodide staining based flow cytometry (reference value: 1.94%); type: functional; parameters: scale not given: the % may be the effect or the level left
[33] = system: A549; test: cells; settings: Homo sapiens, A549, 24 h
Description: Antiproliferative activity against human A549 cells assessed as reduction in cell viability incubated for 24 hrs by MTT assay

[34] = system: MDA-MB-231; test: cells; settings: Homo sapiens, MDA-MB-231, 24 h
Description: Antiproliferative activity against human MDA-MB-231 cells assessed as reduction in cell viability incubated for 24 hrs by MTT assay

SMILES: C/C(=N\NC(=O)c1cccc(Br)c1)c1ccc(C(=O)Nc2nc3ccccc3[nH]2)cc1
- IC50 [1]: 0.304 µM
- Activity [2]: 25.67%
- inhibition [3]: Active
- inhibition [4]: Active
- inhibition [5]: Active
- inhibition [6]: Active
- inhibition [7]: Active
- inhibition [8]: Active
- inhibition [9]: Active
- Activity [10]: Dose-Dependent Effect
- Activity [11]: Dose-Dependent Effect
- viability at 2.5 µM [12]: 90.1%
- Activity [13]: 6.84%
- Activity [14]: 0.076%
- Activity [15]: 0.099%
- viability at 10 µM [16]: 70.2%
- Activity [17]: 0.15%
- viability at 5 µM [18]: 86.2%
- Activity [19]: 5.57%
- viability at 10 µM [20]: 60.5%
- Activity [21]: 12%
- Activity [22]: 12.3%
- Activity [23]: 1.24%
- Activity [24]: Active
- Activity [25]: Active
- Activity [26]: Active
- Activity [27]: Active
- Activity [28]: Active
- Activity [29]: Active
- Activity [30]: Active
- inhibition [31]: Active
- Activity [32]: 8.98%
- IC50 [33]: 6.48 µM
- IC50 [34]: 3.38 µM
